Key:
[1] = target: T1, GST fusion human Keap1 (amino acid residue: 325-624) protein (Homo sapiens, UniProt Q14145); assay: Keap1-Nrf2 binding inhibition test (fluorescence polarization); conditions: compound concentration of 100 nM; read-out: inhibition rate
T1 construct: GST fusion human Keap1 (amino acid residue: 325-624) protein; purchased Protein tech Ag0779
How it was run: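 Fluorescence polarization with FITC-labelled Nrf2 peptide (FITC-Ahx-LDEETGEFL-NH2) and GST-human Keap1 (325-624) in 20 mM Tris pH 7.5, 150 mM NaCl, 0.05% Tween 20, 5 mM DTT, BSA; 30 min at room temperature, ex 482/em 530 nm. Percent inhibition at 100 nM compound, Keap1-free wells = 100%.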

[2] = Metabolism test using human liver microsome fractions; assay type: in vitro ADME; conditions: human liver microsomes, test compound 10 μmol/L, NADPH and UDP-glucuronic acid, 37° C.
How it was run: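 Compound depletion at 10 μmol/L final, 37 °C, followed by UV-HPLC of acetonitrile-quenched aliquots taken 0, 5, 10, 15, 20, 30 min; incubations contained microsomes (1 mg protein, human or monkey) with NADPH and UDPGA cofactors. Rate = slope over linear range.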

NQO1 [3] = assay: NQO1 expression induction test in mouse kidney (single administration); assay type: in vivo; conditions: Mus musculus, po, 6 h, BALB/c mouse kidney, 6 hours after administration, ratio to control group
How it was run: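 Female BALB/c mice received a single oral dose of compound in 0.5% methylcellulose, with untreated mice as controls. Six hours later, left-kidney NQO1 mRNA was measured by SYBR real-time RT-PCR normalised to GAPDH. Induction was expressed as the ratio of mean treated to mean control expression.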

NQO1 [4] = assay: NQO1 enzyme induction test (in vitro) in Hepa1c1c7 cells; assay type: cell-based; conditions: Mus musculus, Hepa-1c1c7, 48 h, concentration to elevate the NQO1 activity by 1.5 times, about 48 hours, read-out: EC150
Protocol: Each NQO1 assay was carried out by modifying a known method (Anal Biochem 1998; 169: 328-, Methods Enzymol 2004; 382: 243-). Hepa1c1c7 cells (mouse hepatocyte line manufacture by DS Pharma Biomedical Co., Ltd., REF. No. 95090613) were cultured (5% CO2, 37° C.). The cells were cultured in MEMα (manufactured by FUJIFILM Wako Pure Chemical Corporation, REF. 135-15175) medium comprising 10% FBS (manufactured by GIBCO, REF. 10082) and […]/streptomycin/amphotericin B (manufactured by GIBCO, REF. 15240), and dispensed into a 96 well plate (manufactured by Costar, REF. 3610) at 2.0×10^3 cells/well. On the next day, test compound (final concentration of […]: 0.1%) dissolved into DMSO (manufactured by FUJIFILM Wako Pure Chemical Corporation, REF. 043-07216) was added to each well, and the plate was further cultured for about 48 hours.
A cell lysate manufactured by Cell signaling Technology, Inc. (REF. 9803) with the addition of a Protease Inhibitor manufactured by Roche Diagnostics K.K. (REF. 11-873580001) was used. A reaction solution (which is a solution comprising trishydrochloric acid (25 mM), albumin […], Tween-20 (0.01%), glucose-6-phosphate dehydrogenase (2 U/mL), flavin-adenine dinucleotide (5 μM), glucose-6-phosphate (1 μM), nicotinamide adenine dinucleotide phosphate (30 μM), 3-(4,5-dimethyl-2-thiazolyl)-2,5-diphenyltetrazolium bromide (MTT) (0.03%), and menadione (50 μM)), and a stop solution (which is a solution comprising dicumarol (0.3 mM) and potassium dihydrogen phosphate (5 mM), pH 7.4) were prepared. After the medium was removed, cell lysate (50 μL) was added thereto, and the resulting mixture was shaken at room temperature for 20 minutes. The reaction solution (200 μL) was added thereto, and the resulting mixture was left to stand at room temperature for 5 minutes. The stop solution (50 μL) was added thereto, and absorbance at 540 nm (reference 750 nm) was measured.
Cell number was measured by Cell Titer Glo assay (manufactured by Promega Corporation, REF. G9242) by using another plate prepared according to the same conditions as those described above, and correction of absorbance was carried out. The test result was analyzed by Excel, and the EC150 value which is the concentration to elevate the NQO1 activity by 1.5 times was calculated.

T1 sequence (Q14145 325-624): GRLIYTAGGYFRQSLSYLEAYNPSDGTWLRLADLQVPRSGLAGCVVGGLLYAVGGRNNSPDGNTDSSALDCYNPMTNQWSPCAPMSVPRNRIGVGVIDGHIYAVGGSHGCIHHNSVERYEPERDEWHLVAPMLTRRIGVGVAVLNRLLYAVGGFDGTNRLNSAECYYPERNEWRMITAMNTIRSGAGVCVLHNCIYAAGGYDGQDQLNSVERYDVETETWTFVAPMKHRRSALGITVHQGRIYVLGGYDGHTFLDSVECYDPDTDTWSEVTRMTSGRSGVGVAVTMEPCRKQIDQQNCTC

Row | SMILES | inhibition at 0.1 µM [1] | Human metabolic rate [2] | fold induction at 20 mg/kg (NQO1 [3]) | EC (1.5-fold NQO1 activity) (NQO1 [4]) | fold induction at 30 mg/kg (NQO1 [3])
1 | CC[C@@H]1CN(Cc2cc(C(c3ccc4c(c3)nnn4C)C(C)(C)C(=O)O)ccc2C)Cc2cc3ncccc3cc2O1 (stereo partly drawn) [Example 82-(b), 3-(3-(((R)-2-ethyl-2,3-dihydro-[1,4]oxazepino[7,6-g]quinolin-4 (5H)-yl)methyl)-4-methylphenyl)-2,2-dimethyl-3-(1-methyl-1H-benzo[d][1,2,3]triazol-5-yl) propanoic Acid] | ≥ 50% | B (100≤metabolic rate<150 pmol/min/mg protein) | > 6 | 0.005 to 0.05 µM | –
2 | CC[C@@H]1CN(Cc2cc(C(c3ccc4c(nnn4C)c3C)C(C)(C)C(=O)O)ccc2C)Cc2cc3ccccc3cc2O1 (stereo partly drawn) [Example 8-(b), 3-(1,4-dimethyl-1H-benzo[d][1,2,3]triazol-5-yl)-3-(3-(((R)-2-ethyl-2,3-dihydronaphtho[2,3-f][1,4]oxazepin-4(5H)-yl)methyl)-4-methylphenyl)-2,2-dimethylpropanoic Acid] | ≥ 50% | A (metabolic rate<100 pmol/min/mg protein) | – | 0.0005 to 0.005 µM | 3 to 6
3 | CC[C@@H]1CN(Cc2cc(C(CC(=O)O)c3ccc4c(nnn4C)c3C)ccc2C)Cc2cc3ncccc3cc2O1 (stereo partly drawn) [Example 56-(b), 3-(1,4-dimethyl-1H-benzo[d][1,2,3]triazol-5-yl)-3-(3-(((R)-2-ethyl-2,3-dihydro-[1,4]oxazepino[7,6-g]quinolin-4(5H)-yl)methyl)-4-methylphenyl)propanoic acid] | ≥ 50% | E (metabolic rate≥250 pmol/min/mg protein) | – | 0.0005 to 0.005 µM | 3 to 6
4 | CC[C@@H]1CN(Cc2cc(C(c3ccc4c(nnn4C)c3C)C(C)(C)C(=O)O)ccc2C)Cc2cc3cn[nH]c3cc2O1 (stereo partly drawn) [Example 15-(b), 3-(1,4-dimethyl-1H-benzo[d][1,2,3]triazol-5-yl)-3-(3-(((R)-8-ethyl-1,5,7,8-tetrahydro-6H-[1,4]oxazepino[6,7-f]indazol-6-yl)methyl)-4-methylphenyl)-2,2-dimethylpropanoic Acid] | ≥ 50% | E (metabolic rate≥250 pmol/min/mg protein) | – | 0.0005 to 0.005 µM | 3 to 6
5 | CC[C@@H]1CN(Cc2cc(C(c3ccc4c(nnn4C)c3C)C(C)(C)C(=O)O)ccc2C)Cc2ccc3c(c2O1)OC(F)(F)O3 (stereo partly drawn) [Example 2-(b), 3-(1,4-dimethyl-1H-benzo[d][1,2,3]triazol-5-yl)-3-(3-(((R)-9-ethyl-2,2-difluoro-8,9-dihydro-[1,3]dioxolo[4′,5′:3,4]benzo[1,2-f][1,4]oxazepin-7(6H)-yl)methyl)-4-methylphenyl)-2,2-dimethylpropanoic Acid] | ≥ 50% | A (metabolic rate<100 pmol/min/mg protein) | – | 0.0005 to 0.005 µM | 3 to 6
6 | CC[C@@H]1CN(Cc2cc(C(c3ccc4c(nnn4C)c3C)C(C)(C)C(=O)O)ccc2C)Cc2cc3cccnc3cc2O1 (stereo partly drawn) [Example 11-(b), 3-(1,4-dimethyl-1H-benzo[d][1,2,3]triazol-5-yl)-3-(3-(((R)-2-ethyl-2,3-dihydro-[1,4]oxazepino[6,7-g]quinolin-4(5H)-yl)methyl)-4-methylphenyl)-2,2-dimethylpropanoic Acid] | ≥ 50% | D (200≤metabolic rate<250 pmol/min/me protein) | – | 0.0005 to 0.005 µM | > 6
7 | CC[C@@H]1CN(Cc2cc(C(c3ccc4c(nnn4C)c3C)C(C)(C)C(=O)O)ccc2C)Cc2cc3c(F)cccc3cc2O1 (stereo partly drawn) [Example 54-(b), 3-(1,4-dimethyl-1H-benzo[d][1,2,3]triazol-5-yl)-3-(3-(((R)-2-ethyl-7-fluoro-2,3-dihydronaphtho[2,3-f][1,4]oxazepin-4(5H)-yl)methyl)-4-methylphenyl)-2,2-dimethylpropanoic Acid] | ≥ 50% | B (100≤metabolic rate<150 pmol/min/mg protein) | – | 0.005 to 0.05 µM | 3 to 6
8 | Cc1ccc(C(c2ccc3c(nnn3C)c2C)C(C)(C)C(=O)O)cc1CN1Cc2cc3ncccc3cc2OC(C)(C)C1 (centres unmarked) [Example 60-(b), 3-(1,4-dimethyl-1H-benzo[d][1,2,3]triazol-5-yl)-3-(3-((2,2-dimethyl-2,3-dihydro-[1,4]oxazepino[7,6-g]quinolin-4 (5H)-yl)methyl)-4-methylphenyl)-2,2-dimethylpropanoic Acid] | ≥ 50% | D (200≤metabolic rate<250 pmol/min/me protein) | – | 0.0005 to 0.005 µM | ≤ 3
9 | CC[C@@H]1CN(Cc2cc(C(c3ccc4c(nnn4CC)c3C)C(C)(C)C(=O)O)ccc2C)Cc2cc3ncccc3cc2O1 (stereo partly drawn) [Example 59-(b), 3-(3-(((R)-2-ethyl-2,3-dihydro-[1,4]oxazepino[7,6-g]quinolin-4(5H)-yl)methyl)-4-methylphenyl)-3-(1-ethyl-4-methyl-1H-benzo[d][1,2,3]triazol-5-yl)-2,2-dimethylpropanoic Acid] | ≥ 50% | D (200≤metabolic rate<250 pmol/min/me protein) | – | 0.0005 to 0.005 µM | > 6
10 | Cc1ccc(C(c2ccc3c(nnn3C)c2C)C(C)(C)C(=O)O)cc1CN1Cc2cc3ncccc3cc2OC2(CC2)C1 (centres unmarked) [Example 76-(b), 3-(3-((3′H-spiro[cyclopropane-1,2′-[1,4]oxazepino[7,6-g]quinoline]-4′ (5′H)-yl)methyl)-4-methylphenyl)-3-(1,4-dimethyl-1H-benzo[d][1,2,3]triazol-5-yl)-2,2-dimethylpropanoic Acid] | ≥ 50% | B (100≤metabolic rate<150 pmol/min/mg protein) | > 6 | 0.0005 to 0.005 µM | –
11 | CC[C@@H]1CN(Cc2cc(C(c3ccc4c(nnn4C)c3C)C(C)(C)C(=O)O)ccc2C)Cc2cc3ccsc3cc2O1 (stereo partly drawn) [Example 72-(b), 3-(1,4-dimethyl-1H-benzo[d][1,2,3]triazol-5-yl)-3-(3-(((R)-2-ethyl-2,3-dihydrothieno[2′,3′:4,5]benzo[1,2-f][1,4]oxazepin-4(5H)-yl)methyl)-4-methylphenyl)-2,2-dimethylpropanoic Acid] | ≥ 50% | A (metabolic rate<100 pmol/min/mg protein) | ≤ 3 | 0.005 to 0.05 µM | –
12 | CC[C@@H]1CN(Cc2cc(C(c3ccc4c(nnn4C)c3C)C(C)(C)C(=O)O)ccc2C)Cc2ccc3cccnc3c2O1 (stereo partly drawn) [Example 27-(b), 3-(1,4-dimethyl-1H-benzo[d][1,2,3]triazol-5-yl)-3-(3-(((R)-2-ethyl-2,3-dihydro-[1,4]oxazepino[6,7-h]quinolin-4 (5H)-yl)methyl)-4-methylphenyl)-2,2-dimethylpropanoic Acid] | ≥ 50% | – | – | 0.005 to 0.05 µM | ≤ 3
13 | CC[C@@H]1CN(Cc2cc(C(c3ccc4c(nnn4C)c3C)C(C)(C)C(=O)O)ccc2C)Cc2ccc3ccccc3c2O1 (stereo partly drawn) [Example 24-(b), 3-(1,4-dimethyl-1H-benzo[d][1,2,3]triazol-5-yl)-3-(3-(((R)-2-ethyl-2,3-dihydronaphtho[2,1-f][1,4]oxazepin-4(5H)-yl)methyl)-4-methylphenyl)-2,2-dimethylpropanoic Acid] | ≥ 50% | – | – | 0.005 to 0.05 µM | > 6
